Results on four compounds are retold here after ChEMBL document CHEMBL1759835, “Biotransformation of natural compounds. Oxido-reduction of Sch-642305 by Aspergillus ochraceus ATCC 1009” (Bioorg Med Chem Lett, 2011).

For one test, the system named is Bacillus subtilis. Description: Antibacterial activity against Bacillus subtilis ATCC 6633 at 100 ug by disk inhibition zone method relative to gentamycin. In kind it is functional. On the set-up: scale not given: the % may be the effect or the level left.
In the next test the test system is Micrococcus luteus. The test can be described thus: Antibacterial activity against Micrococcus luteus ATCC 10240 at 100 ug by disk inhibition zone method relative to chloramphenicol. In kind it is functional. On the set-up: scale not given: the % may be the effect or the level left.
In the next test the test system is MDA-MB-231. Description: Cytotoxicity against human MDA-MB-231 cells assessed as inhibition of cell proliferation after 72 hrs by MTS assay. In kind it is functional, cell-based. Particulars: MDA-MB-231, 72 h. A general note: Tetrazolium assays rely on reduction of a dye to a coloured formazan, in cell work by metabolically active cells.
For a further test, the system named is K562. The test can be described thus: Cytotoxicity against human K562 cells assessed as inhibition of cell proliferation after 72 hrs by MTS assay. In kind it is functional, cell-based. To be noted: K562, 72 h.
Another test has as its system Escherichia coli. The test can be described thus: Antibacterial activity against Escherichia coli ATCC 25922 at 100 ug by disk inhibition zone method relative to chloramphenicol. In kind it is functional. On the set-up: scale not given: the % may be the effect or the level left.

Structures are written as SMILES. pIC50: −log10 of the molar value.

The term pIC50 denotes the negative decadic logarithm of the IC50, by convention in mol/L. `C[C@H]1CCCC[C@@H]2[C@@H](CC(=O)O1)[C@@H](O)CC[C@@H]2O`: the Activity in the test on Bacillus subtilis, with Micrococcus luteus and in the test with Escherichia coli was 0% each time. Also, the pIC50 is 7.40 in the test on MDA-MB-231 and 8.40 in the test on K562.
With `C[C@H]1CCCC[C@H]2C(=O)CC[C@H](O)[C@@H]2CC(=O)O1`, the Activity with Bacillus subtilis was 0%; with Micrococcus luteus, 0%; with Escherichia coli, 50%. In addition, the pIC50 in the test with MDA-MB-231 is 6.40; with K562, 6.70.
As for `C[C@H]1CCCC[C@H]2C(=O)C[C@H](O)[C@H](O)[C@@H]2CC(=O)O1`, the Activity with Bacillus subtilis is on record as 62.5%; in the test on Micrococcus luteus, 0%; with Escherichia coli, 0%. Moreover, the figures for the pIC50 with MDA-MB-231 and with K562 were 7.92 and 7.70, respectively.
In the case of `C[C@H]1CCCC[C@H]2C(=O)C=C[C@H](O)[C@@H]2CC(=O)O1`, the Activity was found to be 100% with Bacillus subtilis, 38% with Micrococcus luteus and 0% in the test with Escherichia coli. Besides, the pIC50 in the test on MDA-MB-231 and in the test with K562 was 7.70 throughout.
